# Measurements from US8541002B2, “Vaccine for treatment and prevention of herpes simplex virus infection” (Agenus Inc., priority 2003, dated 2013).
# Where no end group is shown, it is not given here.
# Assay: Turbidity assay for solubility of the peptides
# Assay type: physicochemical
# Conditions: solubility of the antigenic peptides in water or Dimethyl Sulfoxide (DMSO)
# Procedure: A number of antigenic peptides of the invention were synthesized by chemical synthesis as described in Section 5.1.1.
# A turbidity assay was used to assess the solubility of the peptides. Turbidity assays used either a Varian Cary double-beam spectrophotometer, or a Molecular Devices Spectromax absorbance plate reader (for high throughput experiments). The spectrophotometer assay read every 2 nm between 340 nm and 360 nm, and averaged the values. Samples were analyzed in duplicate using a quartz micro-cuvette that holds about 200 uL. The plate reader assay used a 96-well plate format that read every 4 nm between 340 nm and 360 nm and averaged those values. Samples in this assay were run in triplicate.
row,Compound,Solubility
1,CC[C@H](C)[C@H](NC(=O)[C@@H](NC(=O)[C@@H]1CCCN1C(=O)[C@@H](N)CC(=O)O)[C@@H](C)CC)C(=O)NCC(=O)N[C@H](C(=O)N[C@@H](C)C(=O)N[C@@H](C)C(=O)N[C@@H](C)C(=O)N[C@H](C(=O)N[C@@H](CC(C)C)C(=O)N[C@@H](CCC(=O)O)C(=O)N[C@@H](CC(N)=O)C(=O)N[C@@H](CC(C)C)C(=O)N[C@@H](C)C(=O)N[C@H](C(=O)N[C@@H](CCCNC(=N)N)C(=O)N[C@@H](CC(C)C)C(=O)N[C@@H](CCCNC(=N)N)C(=O)N1CCC[C@H]1C(=O)N[C@@H](Cc1ccccc1)C(=O)N[C@@H](CC(C)C)C(=O)N[C@@H](CCC(N)=O)C(=O)N[C@@H](CS)C(=O)N[C@@H](Cc1ccc(O)cc1)C(=O)N[C@@H](CC(C)C)C(=O)N[C@@H](CCCCN)C(=O)N[C@@H](C)C(=O)N[C@@H](CCCNC(=N)N)C(=O)NCC(=O)N[C@@H](CC(C)C)C(=O)N[C@@H](CS)C(=O)NCC(=O)N[C@@H](CC(C)C)C(=O)N[C@@H](CC(=O)O)C(=O)O)[C@@H](C)O)C(C)C)[C@@H](C)O [UL54-1],water
2,DEAFPIEYVLRLMNDWADVPCNPYLRVQNTGVSVL [UL34-1],DMSO
3,IVGILGCAAVGAAPTGPASDTTNATARLPTHPPLI [US05-2],water
4,CSCC[C@H](NC(=O)[C@H](C)N)C(=O)N[C@@H](CO)C(=O)N[C@@H](CCCNC(=N)N)C(=O)N[C@@H](CCCNC(=N)N)C(=O)N[C@@H](Cc1ccc(O)cc1)C(=O)N[C@@H](CC(=O)O)C(=O)N[C@@H](CCCNC(=N)N)C(=O)N[C@@H](C)C(=O)N[C@@H](CCC(N)=O)C(=O)N[C@@H](CCCCN)C(=O)NCC(=O)N[C@@H](Cc1ccccc1)C(=O)N[C@@H](CC(C)C)C(=O)N[C@@H](CC(C)C)C(=O)N[C@H](C(=O)N[C@@H](CO)C(=O)N[C@@H](CC(C)C)C(=O)N[C@@H](CCCNC(=N)N)C(=O)N[C@@H](CCCNC(=N)N)C(=O)N[C@@H](C)C(=O)N[C@@H](Cc1ccc(O)cc1)C(=O)N[C@@H](C)C(=O)N1CCC[C@H]1C(=O)N[C@@H](CC(C)C)C(=O)N[C@@H](CC(C)C)C(=O)N[C@@H](C)C(=O)N[C@@H](CCCNC(=N)N)C(=O)N[C@@H](CCC(=O)O)C(=O)N[C@@H](CC(N)=O)C(=O)N[C@@H](C)C(=O)N[C@@H](C)C(=O)N[C@@H](CC(C)C)C(=O)N[C@H](C(=O)NCC(=O)O)[C@@H](C)O)[C@@H](C)O [RS01-2],water
5,CSCC[C@H](NC(=O)[C@@H]1CCCN1C(=O)CNC(=O)[C@H](C)NC(=O)CNC(=O)[C@H](CCCNC(=N)N)NC(=O)[C@H](CCCNC(=N)N)NC(=O)[C@@H](N)Cc1ccccc1)C(=O)N[C@@H](CCCNC(=N)N)C(=O)N[C@@H](C)C(=O)N[C@@H](CCCNC(=N)N)C(=O)N1CCC[C@H]1C(=O)N[C@@H](CCCNC(=N)N)C(=O)NCC(=O)N[C@@H](CCC(=O)O)C(=O)N[C@H](C(=O)N[C@@H](CCCNC(=N)N)C(=O)N[C@@H](Cc1ccccc1)C(=O)N[C@@H](CC(C)C)C(=O)N[C@@H](Cc1c[nH]cn1)C(=O)N[C@@H](Cc1ccc(O)cc1)C(=O)N[C@@H](CC(=O)O)C(=O)N[C@@H](CCC(=O)O)C(=O)N[C@@H](C)C(=O)NCC(=O)N[C@@H](Cc1ccc(O)cc1)C(=O)N[C@@H](C)C(=O)N[C@@H](CC(C)C)C(=O)N[C@@H](Cc1ccc(O)cc1)C(=O)N[C@@H](CCCNC(=N)N)C(=O)N[C@@H](CC(=O)O)C(=O)N[C@@H](CO)C(=O)N[C@@H](CO)C(=O)N[C@@H](CO)C(=O)N[C@@H](CC(=O)O)C(=O)O)C(C)C [UL49-1],water
6,CC[C@H](C)[C@H](NC(=O)[C@@H]1CCCN1C(=O)[C@H](CC(C)C)NC(=O)[C@H](Cc1ccc(O)cc1)NC(=O)[C@@H](N)CCCNC(=N)N)C(=O)N[C@@H](C)C(=O)NCC(=O)N[C@H](C(=O)N[C@@H](CO)C(=O)N[C@@H](CO)C(=O)N[C@H](C(=O)N[C@H](C(=O)N[C@@H](C)C(=O)N[C@@H](CC(C)C)C(=O)N[C@@H](C)C(=O)N1CCC[C@H]1C(=O)N[C@@H](Cc1ccc(O)cc1)C(=O)N[C@H](C(=O)N[C@@H](CC(N)=O)C(=O)N[C@@H](CCCCN)C(=O)N[C@H](C(=O)N[C@H](C(=O)N[C@H](C(=O)NCC(=O)N[C@@H](CC(=O)O)C(=O)N[C@@H](CS)C(=O)N[C@@H](CC(C)C)C(=O)N1CCC[C@H]1C(=O)N[C@H](C(=O)N[C@@H](CC(C)C)C(=O)N[C@@H](CC(=O)O)C(=O)N[C@@H](CCSC)C(=O)N[C@@H](CCC(=O)O)C(=O)N[C@H](C(=O)NCC(=O)O)[C@@H](C)O)C(C)C)[C@@H](C)O)C(C)C)[C@@H](C)O)C(C)C)C(C)C)C(C)C)C(C)C [RL02-2],DMSO
7,RAYLVNPFLFAAGFLEDLSHSVFPADTQETTTRRA [UL01-1],water
